Data taken from article PMC8165160, “Substrate Specificities and Inhibition Pattern of the Solute Carrier Family 10 Members NTCP, ASBT and SOAT” (Frontiers in Molecular Biosciences, 2021).
Where two headings read alike, the source gives them in different places.

Assays:
[1] = molecular target: T1, SOAT (Homo sapiens, UniProt Q3KNW5); test: Transport inhibition in SOAT-HEK293 cells; format: cell-based; conditions: triterpenoid inhibitors, 10 min after 5 min preincubation
T1 construct: The full-length open reading frames of NTCP, ASBT, and SOAT were cloned; expressed in transfected cells; host or cells: Flp-In T-REX HEK293 (SOAT-HEK293), tetracycline-induced
T1 sequence (Q3KNW5 1-377): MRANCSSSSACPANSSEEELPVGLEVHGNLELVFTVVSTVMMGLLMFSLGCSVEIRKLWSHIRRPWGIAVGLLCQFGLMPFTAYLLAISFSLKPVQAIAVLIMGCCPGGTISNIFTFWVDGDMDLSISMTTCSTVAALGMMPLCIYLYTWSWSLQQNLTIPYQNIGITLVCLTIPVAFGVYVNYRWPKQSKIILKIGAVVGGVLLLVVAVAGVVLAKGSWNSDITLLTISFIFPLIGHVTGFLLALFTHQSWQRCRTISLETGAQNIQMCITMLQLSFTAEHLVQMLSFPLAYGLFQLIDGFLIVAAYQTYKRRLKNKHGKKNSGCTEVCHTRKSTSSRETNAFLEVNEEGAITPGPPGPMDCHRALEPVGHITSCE
Method: (§1) Cells were washed three times with PBS and were preincubated with the respective inhibitor in sodium transport buffer for 5 min at 37°C. Uptake was initiated by adding the respective radiolabeled substrate to the well and incubating for a fixed time as indicated in the figures at 37°C. Transport was terminated by removing the transport buffer and washing five-times with ice-cold PBS. Cell monolayers were lysed in 1 N NaOH with 0.1% SDS and the cell-associated radioactivity and protein content was determined as described above. For uptake inhibition with the myr-preS1 peptide the sodium transport buffer contained additionally MEM-amino acid solution (ThermoFisher) at 1:50 dilution.
(§2) All transport or inhibition graphs were generated with GraphPad Prism 6.0 (GraphPad). Determination of IC50 values was done by nonlinear regression analysis using the equation log (inhibitor) vs. response settings. If not stated otherwise in the legends all data represent means ± SD of at least triplicate determinations of representative experiments.
(§3) FIGURE 3 Inhibition of NTCP, ASBT, and SOAT with substrate inhibitors. Transport of [^3H]TC, [^3H]TLC, and [^3H]DHEAS was analyzed in NTCP-HEK293, ASBT-HEK293, and SOAT-HEK293 cells in the presence of the substrate inhibitors TC, TLC, and DHEAS at increasing concentrations ranging from 100 nM till 1000 µM. After 5 min of preincubation with the respective inhibitory compound, 200 nM [^3H]TLC, [^3H]TC or [^3H]DHEAS were added for additional 1 min and the cell lysates were analyzed by liquid scintillation counting. Unspecific uptake of HEK293-FlpIn cells was set to 0%. Carrier-specific uptake without inhibitor was set to 100%.
(§4) Transport of [^3H]TC, [^3H]TLC, and [^3H]DHEAS was analyzed in NTCP-HEK293, ASBT-HEK293, and SOAT-HEK293 cells in the presence of different supposed non-substrate triterpenoid inhibitors as indicated at increasing concentrations ranging from 100 nM till 1000 µM. After 5 min of preincubation with the respective inhibitory compound, 1 µM [^3H]TLC, [^3H]TC or [^3H]DHEAS were added for additional 10 min at 37°C and the cell lysates were analyzed by liquid scintillation counting. Experiments performed without inhibitor were set to 100%. Means of negative controls were subtracted to calculate net transport rates (expressed as percentage of control). Data represent means ± SD of quadruplicate determinations of representative experiments.

[2] = molecular target: T2, ASBT (Homo sapiens, UniProt Q12908); test: Transport inhibition in ASBT-HEK293 cells; format: cell-based; conditions: triterpenoid inhibitors, 10 min after 5 min preincubation
T2 construct: The full-length open reading frames of NTCP, ASBT, and SOAT were cloned; expressed in transfected cells; host or cells: Flp-In T-REX HEK293 (ASBT-HEK293), tetracycline-induced
T2 sequence (Q12908 1-348): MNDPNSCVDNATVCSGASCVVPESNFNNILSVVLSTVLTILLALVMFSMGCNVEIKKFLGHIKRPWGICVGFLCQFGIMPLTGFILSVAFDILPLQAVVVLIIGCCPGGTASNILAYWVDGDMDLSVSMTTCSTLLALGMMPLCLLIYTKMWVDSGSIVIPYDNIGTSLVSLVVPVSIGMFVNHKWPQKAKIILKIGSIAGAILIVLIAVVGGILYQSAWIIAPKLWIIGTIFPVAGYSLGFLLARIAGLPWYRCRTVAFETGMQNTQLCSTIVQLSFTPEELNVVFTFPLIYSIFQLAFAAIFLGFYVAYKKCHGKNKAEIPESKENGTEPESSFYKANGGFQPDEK
Method: as §1, §2, §3, §4

[3] = molecular target: T3, NTCP (Homo sapiens, UniProt Q14973); test: Transport inhibition in NTCP-HEK293 cells
T3 sequence (Q14973 1-349): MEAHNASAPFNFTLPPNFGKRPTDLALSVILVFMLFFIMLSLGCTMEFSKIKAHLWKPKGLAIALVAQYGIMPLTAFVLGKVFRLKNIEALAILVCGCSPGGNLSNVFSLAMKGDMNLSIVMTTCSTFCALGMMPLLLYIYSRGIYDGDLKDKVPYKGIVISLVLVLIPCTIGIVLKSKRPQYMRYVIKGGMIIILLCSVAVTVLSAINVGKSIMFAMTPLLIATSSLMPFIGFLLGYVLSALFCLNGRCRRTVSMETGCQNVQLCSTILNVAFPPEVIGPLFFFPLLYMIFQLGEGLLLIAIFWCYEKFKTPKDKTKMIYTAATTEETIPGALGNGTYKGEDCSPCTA

[4] = system: HDV; conditions: in vitro; ref Kirstgen et al., 2020; cited from earlier work
[5] = molecular target: T3, NTCP; test: Substrate screening: sodium-dependent uptake of radiolabeled compounds in NTCP-HEK293 cells; format: cell-based; design: The full-length open reading frames of NTCP, ASBT, and SOAT were cloned; expressed in transfected cells; host or cells: Flp-In T-REX HEK293 (NTCP-HEK293), tetracycline-induced; conditions: radiolabeled steroid compounds 200 nM, 10 min, NTCP-HEK293, vs sodium-free control
Method: (§5) Stably SLC10 transporter transfected NTCP-HEK293, ASBT-HEK293, SOAT-HEK293 cells and the HEK293-FlpIn maternal cell line were seeded on 24-well plates (if not stated otherwise for individual assays). Well plates were coated with poly-D-lysine prior to seeding of 125,000 cells per well. Cells were grown with 1 ml of standard medium per well with or without tetracycline ([…]) for 72 h to induce carrier expression before respective assays were started. HEK293-FlpIn cells were cultivated with standard medium and served as control.
(§6) Uptake experiments were initiated by replacing the preincubation buffer by 500 μL transport buffer containing the radiolabeled test compound and were performed at 37°C. Transport was terminated by removing the transport buffer and washing five-times with ice-cold PBS. Cell monolayers were lysed in 1 N NaOH with 0.1% SDS and the cell-associated radioactivity was determined by liquid scintillation counting.
(§7) FIGURE 1 Comparative substrate screening for bile acids and sulfated steroids in NTCP-, ASBT-, and SOAT-HEK293 cells. Transport assays were performed with the indicated substrates in NTCP-HEK293, ABST-HEK293, SOAT-HEK293, and HEK293-FlpIn cells. Cells were washed and equilibrated with Na^+-containing transport buffer (filled bars) or with Na^+-free transport buffer (open bars) at 37°C. For uptake, cells were incubated with radiolabeled steroid compounds at a final concentration of 200 nM in Na^+-containing or Na^+-free transport buffer for 10 min. Radiolabeled bile acids were used at 1 µM concentrations and transport was analyzed over 30 min. HEK293-FlpIn cells served as additional controls. After the indicated time intervals, cells were washed with ice-cold PBS, lysed and subjected to liquid scintillation counting. […] 3-OH, trihydroxylated BAs; 2-OH, dihydroxylated BAs; 1-OH, monohydroxylated BAs.

[6] = molecular target: T3, NTCP; test: Transport kinetics (concentration-dependent uptake) in NTCP-HEK293 cells; format: cell-based; design: The full-length open reading frames of NTCP, ASBT, and SOAT were cloned; expressed in transfected cells; host or cells: Flp-In T-REX HEK293 (NTCP-HEK293), tetracycline-induced; conditions: uptake via NTCP, 1 min, 37°C
Method: as §6
FIGURE 2 NTCP, ASBT, and SOAT transport kinetics. Concentration-dependent uptake was analyzed in NTCP-HEK293, ASBT-HEK293, and SOAT-HEK293 cells for the indicated substrates at increasing substrate concentrations. Stably transfected HEK293 cells were pretreated with 1 μg/ml tetracycline to induce carrier expression. HEK293-FlpIn cells were used as control. Uptake was analyzed for 1 min at 37°C. Afterward, the medium was removed and each cell monolayer was washed and processed to determine the protein content and cell-associated radioactivity. Specific uptake was calculated by subtracting non-specific uptake of the HEK293-FlpIn control cells (open squares) from uptake into carrier-overexpressing HEK293 cells (filled squares) and is shown by broken lines. The values represent means ± SD of duplicate experiments, each with triplicate determinations (n = 6).

[7] = molecular target: T1, SOAT; design: method as in Geyer et al. (2007); conditions: uptake via SOAT, same SOAT-HEK293 cell line; ref Geyer et al. (2007); cited from earlier work
[8] = molecular target: T1, SOAT; test: Substrate screening: sodium-dependent uptake of radiolabeled compounds in SOAT-HEK293 cells; format: cell-based; conditions: radiolabeled steroid compounds 200 nM, 10 min, SOAT-HEK293, vs sodium-free control
Method: as §5, §6, §7

[9] = 1 µM [3H]DHEAS, read-out: SOAT IC50, substrate [3H]DHEAS
[10] = 1 µM [3H]TLC, read-out: SOAT IC50, substrate [3H]TLC
[11] = 1 µM [3H]TC, read-out: ASBT IC50, substrate [3H]TC
[12] = 1 µM [3H]TLC, read-out: ASBT IC50, substrate [3H]TLC
[13] = NTCP IC50, substrate [3H]TC, triterpenoid inhibitors, 1 µM [3H]TC, 10 min after 5 min preincubation
[14] = NTCP IC50, substrate [3H]TLC, triterpenoid inhibitors, 1 µM [3H]TLC, 10 min after 5 min preincubation

Compound	IC50 [1, 9] [µM]	IC50 [1, 10] [µM]	IC50 [2, 11] [µM]	IC50 [2, 12] [µM]	IC50 [3, 13] [µM]	IC50 [3, 14] [µM]	anti-HDV activity in vitro [4]	Transport activity grading NTCP (mean uptake) [5]	Apparent K m [6] [µM]	V max [6] [pmol/mg protein/min]	Apparent K m [7] [µM]	V max [7] [pmol/mg protein/min]	Transport activity grading SOAT (mean uptake) [8]	other results
C=C(C)[C@@H]1CC[C@]2(CO)CC[C@]3(C)[C@H](CC[C@@H]4[C@@]5(C)CC[C@H](OC(=O)/C=C/c6ccc(O)c(O)c6)C(C)(C)[C@@H]5CC[C@]43C)[C@@H]12 [3-O-Caffeoyl betulin]	301	37.8	499	99.7	129	2.1								IC50 ([3]; NTCP IC50, substrate [3H]DHEAS, triterpenoid inhibitors, 1 µM [3H]DHEAS, 10 min after 5 min preincubation): 49.1 µM
C=C(C)[C@@H]1CC[C@]2(CO)CC[C@]3(C)[C@H](CC[C@@H]4[C@@]5(C)CC[C@H](O)C(C)(C)[C@@H]5CC[C@]43C)[C@@H]12 [Betulin]														IC50 ([1]; SOAT IC50, substrate [3H]DHEAS, 1 µM [3H]DHEAS): 912 µM; IC50 ([1]; SOAT IC50, substrate [3H]TLC, 1 µM [3H]TLC): 50.1 µM; IC50 ([2]; ASBT IC50, substrate [3H]TC, 1 µM [3H]TC): > 1000 µM; IC50 ([2]; ASBT IC50, substrate [3H]TLC, 1 µM [3H]TLC): 192 µM
C=C(C)[C@@H]1CC[C@]2(C(=O)O)CC[C@]3(C)[C@H](CC[C@@H]4[C@@]5(C)CC[C@H](O)C(C)(C)[C@@H]5CC[C@]43C)[C@@H]12 [Betulinic acid]	1.2	9.5	> 1000	193			anti-HDV activity							
C[C@]12CC[C@@H]3c4ccc(OS(=O)(=O)O)cc4CC[C@H]3[C@@H]1CCC2=O [E1S, Estrone-3-sulfate]								++ (“++” for values between 10 and 100)	57.6 ± 11.3	2367 ± 170.8	12.0 ± 2.3	585 ± 34	+ (Mean uptake “+” for values below 10)	
C=C(C)[C@@H]1CC[C@]2(C)CC[C@]3(C)[C@H](CC[C@@H]4[C@@]5(C)CCC(=O)C(C)(C)[C@@H]5CC[C@]43C)[C@@H]12 [Lupenone]	665	122	> 1000	> 1000	240	11.8	anti-HDV activity							IC50 ([3]; NTCP IC50, substrate [3H]DHEAS): > 1000 µM
Pregnenolone sulfate [PREGS]								+++ (“+++” for values above 100 pmol/mg protein/10 min for sulfated steroid hormones)	8.8 ± 2.1	1036 ± 69.1	11.3 ± 3.0	2168 ± 134	+++ (“+++” for values above 100 pmol/mg protein/10 min for sulfated steroid hormones)	
